Common to all, as to assay type: cell-based
In assay [1] the test system is Colon cancer (C26, murine) cells. The assay can be described thus: Tumor cell proliferation assay (ATP-lite), C26. As to conditions: Mus musculus, 96 h, inhibition of tumor cell growth by 50%, 4 days incubation, ATP-lite readout. On the procedure: (§1) Assay 1: Tumor Cell Proliferation Assay:
(§2) Colon cancer (C26, murine), pancreatic cancer (MiaPaCa-2, human) cells were plated in 96-well white plates (Cat. No. 3917, Corning, Inc.) at 2.5×10^3 cells/well and cultured overnight at 37° C. in 5% CO2 in DMEM containing 10% FCS. Inhibitors were serially diluted in 100% DMSO and subsequently added to cells to reach a final concentration of 0.25% DMSO. Cell plates were incubated for an additional 4 days at 37° C. and 5% CO2 and cell proliferation was quantitated using the ATP-lite cell proliferation kit (Cat. No. 6016943, Perkin Elmer).
(§3) The ATPlite kit quantifies the ATP released from lysed cells by the generation of light caused by the reaction of the released ATP with the Luciferase and D-Luciferin contained in the kit. After the 4th day of incubation, the media is removed from the cell plates and replaced with 100 μL of PBS followed by 50 μL of the lysis solution. The plates are then shaken for 5 minutes on an orbital shaker followed by the addition of 50 μL of substrate solution. The plates are shaken for an additional 5 minutes followed by dark adaptation for 10 minutes and finally read on a Victor^3 V plate reader (1 second/well, Cat. No. 1420-041, Perkin Elmer).
(§4) Columns 2-3 show the concentration of compounds required to inhibit the growth of tumor cells by 50% (IC50 in μM).

The subject of assay [2] is Human umbilical vein endothelial cells (HUVEC). The assay is described as follows: Endothelial tube formation assay. To be noted: 50% reduction in total endothelial tube length, HUVEC on Matrigel, overnight culture. On the procedure:
Assay 2: Endothelial Tube Formation Assay
Human umbilical vein endothelial cells (HUVEC) (Cascade Biologics #C-003-5C) were plated into 96-well black clear-bottom microplates (Cat. No. 3603, Corning, Inc.) containing 50 uL/well of BD Matrigel Basement Membrane Matrix (BD Biosciences #354234) at 7.5×10^3 cells/well. Inhibitors were serially diluted in 100% DMSO and subsequently added to cells to reach a final concentration of 0.5% DMSO and the plates cultured overnight at 37° C., 5% CO2 in (EGM™-2 MV) (Cambrex #CC-3202). […] Cell plates were incubated in the dark at 37° C., 5% CO2 for 10 minutes and then immediately imaged and quantitated on the Discovery—1 automated microscope (Molecular Devices Corp.) to determine the total endothelial tube length. The total endothelial tube length is calculated using the Angiogenesis image algorithm supplied with the MetaMorph software package (Molecular Devices Corp). […] The binary image is then analyzed to remove objects that are not part of the endothelial tube network, such as cell clumps or debris. Finally, the corrected binary image is processed to reduce the tubes to single pixel width from which the total tube length is calculated. […]

The test system of assay [3] is pancreatic cancer (MiaPaCa-2, human) cells. The assay can be described thus: Tumor cell proliferation assay (ATP-lite), MiaPaCa-2. As to conditions: MIA PaCa-2, 96 h; inhibition of tumor cell growth by 50%; MiaPaCa-2 human pancreatic cancer cells; 4 days incubation; ATP-lite readout. The protocol:
as §1, §2, §3, §4

`CC(=NN(C)c1nc(C(F)(F)F)nc2ccccc12)c1ccc(C)cc1` [Compound 2]: the half-maximal inhibitory concentration (IC50) in assay [1], in assay [2] and in assay [3] was less than 1 µM each time.
With `CC(=NN(C)c1nc(C)nc2ccccc12)c1ccc(C)cc1` [Compound 7, N-Methyl-N-(2-methyl-quinazolin-4-yl)-N-(1-p-tolyl-ethylidene)-hydrazine], the half-inhibitory concentration (IC50) in assay [1], in assay [2] and in assay [3] was less than 1 µM throughout.
In the case of `COc1ccccc1-c1cc(NN=C(C)c2ccc(C)cc2)nc(C)n1` [Compound 29, N-[6-(2-Methoxy-phenyl)-2-methylpyrimidin-4-yl]-N′-[1-p-tolyl-ethylidene]-hydrazine], the IC50 in assay [1] and in assay [3] was less than 1 µM each time.
Consider `CC(=NNc1cc(-c2ccccc2C#N)nc(C)n1)c1ccc(C)cc1` [Compound 31, 2-(2-Methyl-6-{N′-[1-p-tolyl-ethylidene]-hydrazino}-pyrimidin-4-yl)-benzonitrile], for which the IC50 in assay [1] and in assay [3] was less than 1 µM in each case.
For `CC(=NNc1cc(-c2ccccc2C)nc(C)n1)c1ccc(C)cc1` [Compound 32, N-[6-(2-methyl-phenyl)-2-methyl-pyrimidin-4-yl]-N′-[1-p-tolyl-ethylidene]-hydrazine], the half-maximal inhibitory concentration (IC50) in assay [1] and in assay [3] was less than 1 µM throughout.
Regarding `CC(=NNc1cc(-c2ccccc2N2CCOCC2)nc(C)n1)c1ccc(C)cc1` [Compound 33, N-[2-Methyl-6-(2-morpholin-4-yl-phenyl)-pyrimidin-4-yl]-N′-[1-p-tolyl-ethylidene]-hydrazine], the IC50 – broadly, the point on the concentration scale where inhibition reaches its midpoint – was 1 to 15 µM in assay [1] and less than 1 µM in assay [3].
On the same counts, the results for `CC(=O)Nc1ccccc1-c1cc(NN=C(C)c2ccc(C)cc2)nc(C)n1` [Compound 34, N-[2-(2-Methyl-6-{N′-[1-p-tolyl-ethylidene]-hydrazino}-pyrimidin-4-yl)-phenyl]-acetamide] are less than 1 µM and less than 1 µM.
`CC(=NNc1cc(-c2ccccc2CO)nc(C)n1)c1ccc(C)cc1` [Compound 35, [2-(2-Methyl-6-{N′-[1-p-tolyl-ethylidene]-hydrazino}-pyrimidin-4-yl)-phenyl]-methanol]: the half-inhibitory concentration (IC50) in assay [1] and in assay [3] was less than 1 µM throughout.
In the case of `CC(=NNc1cc(-c2c(C)noc2C)nc(C)n1)c1ccc(C)cc1` [Compound 36, N-[6-(3,5-Dimethyl-isoxazol-4-yl)-2-methyl-pyrimidin-4-yl]-N′-[1-p-tolyl-ethylidene]-hydrazine], the IC50 in assay [1] and in assay [3] was less than 1 µM in each case.
Take `CC(=NNc1cc(-c2ccccc2N)nc(C)n1)c1ccc(C)cc1` [Compound 38, 2-(2-Methyl-6-{N′-[1-p-tolyl-ethylidene]-hydrazino}-pyrimidin-4-yl)-phenylamine]: the IC50 in assay [1] and in assay [3] was less than 1 µM throughout.
With `CC(=NN(C)c1cc(-c2ccccc2)nc(C)n1)c1ccc(C)cc1` [Compound 39, N-Methyl-N-(2-methyl-6-phenyl-pyrimidin-4-yl)-N′-[1-p-tolyl-ethylidene]-hydrazine], the IC50 in assay [1] and in assay [3] was less than 1 µM throughout.
In the case of `COc1cccc(OC)c1-c1cc(NN=C(C)c2ccc(C)cc2)nc(C)n1` [Compound 40, N-[6-(2,6-Dimethoxy-phenyl)-2-methyl-pyrimidin-4-yl]-N′-[1-p-tolyl-ethylidene]-hydrazine], the IC50 in assay [1] and in assay [3] was less than 1 µM each time.
Regarding `CC(=NNc1cc(-c2ccccc2)nc(C)n1)c1ccc(C)cc1` [Compound 41, N-(2-Methyl-6-phenyl-pyrimidin-4-yl)-N′-(1-p-tolyl-ethylidene)-hydrazine], the IC50 in assay [1] and in assay [3] was less than 1 µM each time.
`CC(=NNc1cc(-c2ccccc2)nc(C)n1)c1ccc(N)cc1` [Compound 42, 4-{1-[(2-Methyl-6-phenyl-pyrimidin-4-yl)-hydrazono]-ethyl}-phenylamine]: the IC50 in assay [1] and in assay [3] was 1 to 15 µM in each case.

The values are drawn from US8288398B2, “Antiproliferative pyrimidyl, fused pyrimidyl and pyrimidyl hydrazones” (Merck Serono SA, priority 2005, dated 2012).
